Laboratory results published in US10670605B2, “Cysteine reactive probes and uses thereof” (The Scripps Research Institute, priority 2015, dated 2020).

Tests used:
[1] = test system: cysteines in MDA-MB-231 and Ramos cell proteomes; assay: Competitive isoTOP-ABPP in cell lysates (in vitro): proteomic reactivity / liganded cysteine rate; assay type: binding, human; conditions: fragment 500 μM; % of quantified cysteines with R ≥4
Method: All cell lines were obtained from ATCC, were used with a low passage number and were grown at 37° C. with 5% CO2. MDA-MB-231 cells and HEK-293T cells were grown in DMEM supplemented with 10% fetal bovine serum, penicillin, streptomycin and glutamine. Jurkat, Ramos and MUM2C cells were grown in RPMI-1640 medium supplemented with 10% fetal bovine serum, penicillin and streptomycin. For in vitro labeling, cells were grown to 100% confluence for MDA-MB-231 cells or until cell density reached 1.5 million cells/mL for Ramos and Jurkat cells. […] Cell pellets were lysed by sonication and fractionated (100,000 g, 45 min) to yield soluble and membrane fractions, which were then adjusted to a final protein concentration of 1.5 mg/mL for proteomics experiments and 1 mg/mL for gel-based ABPP experiments. The soluble lysate was prepared fresh from frozen pellets directly before each experiment. Protein concentration was determined using the Bio-Rad DC™ protein assay kit.
For each sample, 100 μL of streptavidin-agarose beads slurry (Pierce) was washed in 10 mL PBS and then resuspended in 5 mL PBS. The SDS-solubilized proteins were added to the suspension of streptavidin-agarose beads and the bead mixture was rotated for 3 h at ambient temperature. After incubation, the beads were pelleted by centrifugation (1,400 g, 3 min) and were washed (2×10 mL PBS and 2×10 mL water).
The beads were transferred to eppendorf tubes with 1 mL PBS, centrifuged (1,400 g, 3 min), and resuspended in PBS containing 6 M urea (500 μL). To this was added 10 mM DTT (25 μL of a 200 mM stock in water) and the beads were incubated at 65° C. for 15 mins. 20 mM iodoacetamide (25 μL of a 400 mM stock in water) was then added and allowed to react at 37° C. for 30 mins with shaking. The bead mixture was diluted with 900 μL PBS, pelleted by centrifugation (1,400 g, 3 min), and resuspended in 200 μL PBS. To this was added 1 mM CaCl2 ([…]) and trypsin (2 μg, Promega, sequencing grade) and the digestion was allowed to proceed overnight at 37° C. with shaking. The beads were separated from the digest with Micro Bio-Spin columns (Bio-Rad) by centrifugation (1,000 g, 1 min), washed (2×1 mL PBS and 2×1 mL water) and then transferred to fresh eppendorfs with 1 mL water. The washed beads were washed once further in 140 μL TEV buffer (50 mM Tris, pH 8, 0.5 mM EDTA, 1 mM DTT) and then resuspended in 140 μL TEV buffer. 5 μL TEV protease (80 μM) was added and the reactions were rotated overnight at 29° C. The TEV digest was separated from the beads with Micro Bio-Spin columns by centrifugation (1,400 g, 3 min) and the beads were washed once with water (100 μL). The samples were then acidified to a final concentration of 5% (v/v) formic acid and stored at −80° C. prior to analysis.

[2] = target: T1, IMPDH2 (C140) (Homo sapiens, UniProt P12268); assay: Click probe 18 labeling of recombinant IMPDH2 and its competition; assay type: binding
T1 construct: Full length cDNAs encoding for IDH1 (Open Biosystems, Clone ID: 3880331) and IMPDH2 (Open Biosystems, Clone ID: 3447994); His6 (C); made in house; host or cells: E. coli BL21(DE3)

[3] = target: T2, pro-CASP8 (Homo sapiens, UniProt Q14790, D374A/D384A); assay: Click probe 61 labeling of pro-CASP8 and its competition; assay type: binding
T2 construct: a truncated CASP8 (residues 217-479) without the CARD domain; His6 (C); made in house; host or cells: E. coli BL21(DE3)pLysS
T2 sequence (Q14790 217-479 D374A/D384A): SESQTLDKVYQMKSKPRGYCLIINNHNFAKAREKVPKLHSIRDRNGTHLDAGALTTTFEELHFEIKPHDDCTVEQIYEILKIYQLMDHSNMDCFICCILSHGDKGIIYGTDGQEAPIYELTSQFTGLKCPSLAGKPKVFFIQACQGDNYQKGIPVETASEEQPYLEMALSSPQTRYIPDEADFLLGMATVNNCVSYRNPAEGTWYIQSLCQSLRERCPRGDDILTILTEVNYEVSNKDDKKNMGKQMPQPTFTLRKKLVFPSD

[4] = target: pro-CASP10 (Homo sapiens, UniProt Q92851); assay: Blockade of probe 61 labeling of pro-CASP10; assay type: binding
Sequence of pro-CASP10 (Q92851 220-521): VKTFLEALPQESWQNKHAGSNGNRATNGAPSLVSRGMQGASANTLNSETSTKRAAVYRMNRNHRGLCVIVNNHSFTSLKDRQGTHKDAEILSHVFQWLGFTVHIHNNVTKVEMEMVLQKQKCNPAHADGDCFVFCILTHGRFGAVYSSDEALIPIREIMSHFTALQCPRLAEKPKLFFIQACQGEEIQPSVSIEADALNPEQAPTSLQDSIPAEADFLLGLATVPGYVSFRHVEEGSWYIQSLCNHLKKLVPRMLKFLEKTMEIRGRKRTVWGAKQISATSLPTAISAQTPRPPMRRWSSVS

[5] = target: T3, ACAT1 C196 (P24752) (Homo sapiens, UniProt P24752); assay: Competitive isoTOP-ABPP, cell lysates; assay type: binding; conditions: 500 μm, in-vitro_ramos_231
T3 sequence (P24752 34-427): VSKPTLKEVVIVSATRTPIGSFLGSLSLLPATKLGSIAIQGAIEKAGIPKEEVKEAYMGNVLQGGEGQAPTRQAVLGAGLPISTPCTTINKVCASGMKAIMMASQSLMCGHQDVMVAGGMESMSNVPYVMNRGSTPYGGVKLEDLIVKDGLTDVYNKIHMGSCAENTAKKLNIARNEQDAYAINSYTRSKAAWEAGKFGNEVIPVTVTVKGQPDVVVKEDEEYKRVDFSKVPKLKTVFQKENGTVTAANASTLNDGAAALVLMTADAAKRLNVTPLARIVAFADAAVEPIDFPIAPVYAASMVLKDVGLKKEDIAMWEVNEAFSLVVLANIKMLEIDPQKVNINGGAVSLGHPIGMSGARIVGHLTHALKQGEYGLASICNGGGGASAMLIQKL

[6] = target: T4, ACAT1 C126 (P24752) (Homo sapiens, UniProt P24752); assay: Competitive isoTOP-ABPP, cell lysates; assay type: binding; conditions: 500 μm, in-vitro_ramos_231
T4 sequence (P24752 34-427): T3 sequence (P24752 34-427)

[7] = target: T5, ACAT1 C413 (P24752) (Homo sapiens, UniProt P24752); assay: Competitive isoTOP-ABPP, cell lysates; assay type: binding; conditions: 500 μm, in-vitro_ramos_231
T5 sequence (P24752 34-427): T3 sequence (P24752 34-427)

[8] = target: XPO1 C34 (O14980) (Homo sapiens, UniProt O14980); assay: Competitive isoTOP-ABPP, cell lysates; assay type: binding; conditions: 500 μm, in-vitro_ramos_231
Sequence of XPO1 C34 (O14980) (O14980 whole entry, the tested form may be a part): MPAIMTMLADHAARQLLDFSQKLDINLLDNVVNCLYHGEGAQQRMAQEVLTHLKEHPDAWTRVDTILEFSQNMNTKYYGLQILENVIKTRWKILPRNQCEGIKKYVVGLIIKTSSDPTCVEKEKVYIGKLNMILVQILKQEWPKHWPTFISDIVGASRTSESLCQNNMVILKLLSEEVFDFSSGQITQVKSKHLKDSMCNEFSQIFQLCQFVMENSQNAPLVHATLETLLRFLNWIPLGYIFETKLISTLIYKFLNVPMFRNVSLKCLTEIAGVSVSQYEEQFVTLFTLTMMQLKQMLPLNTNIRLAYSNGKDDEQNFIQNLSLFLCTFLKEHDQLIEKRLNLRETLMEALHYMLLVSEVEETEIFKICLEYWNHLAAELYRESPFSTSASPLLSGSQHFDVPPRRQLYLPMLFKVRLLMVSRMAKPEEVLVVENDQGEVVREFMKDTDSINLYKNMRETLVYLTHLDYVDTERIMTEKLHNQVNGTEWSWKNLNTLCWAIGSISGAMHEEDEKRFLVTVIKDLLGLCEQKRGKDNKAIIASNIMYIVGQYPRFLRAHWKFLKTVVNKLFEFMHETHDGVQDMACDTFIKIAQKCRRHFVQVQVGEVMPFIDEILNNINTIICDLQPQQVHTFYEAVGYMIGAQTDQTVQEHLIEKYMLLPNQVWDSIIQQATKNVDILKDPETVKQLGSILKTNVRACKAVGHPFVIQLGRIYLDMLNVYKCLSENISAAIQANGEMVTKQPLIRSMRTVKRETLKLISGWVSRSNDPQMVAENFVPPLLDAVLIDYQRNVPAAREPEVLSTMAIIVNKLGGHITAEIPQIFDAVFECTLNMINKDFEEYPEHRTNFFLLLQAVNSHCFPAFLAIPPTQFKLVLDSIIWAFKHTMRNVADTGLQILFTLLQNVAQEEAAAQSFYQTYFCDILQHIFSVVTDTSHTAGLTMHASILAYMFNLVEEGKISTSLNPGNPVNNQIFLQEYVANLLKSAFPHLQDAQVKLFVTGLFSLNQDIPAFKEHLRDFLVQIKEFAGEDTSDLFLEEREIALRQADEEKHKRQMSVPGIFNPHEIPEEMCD
Method: (§1) TEV digests were pressure loaded onto a 250 μm (inner diameter) fused silica capillary column packed with C18 resin (Aqua 5 μm, Phenomenex). The samples were analyzed by multidimensional liquid chromatography tandem mass spectrometry (MudPIT), using an LTQ-Velos Orbitrap mass spectrometer (Thermo Scientific) coupled to an Agilent 1200-series quaternary pump. The peptides were eluted onto a biphasic column with a 5 μm tip (100 μm fused silica, packed with C18 (10 cm) and bulk strong cation exchange resin (3 cm, SCX, Phenomenex,)) in a 5-step MudPIT experiment, using 0%, 30%, 60%, 90%, and 100% salt bumps of 500 mM aqueous ammonium acetate and using a gradient of 5-100% buffer B in buffer A (buffer A: 95% water, 5% acetonitrile, 0.1% formic acid; buffer B: 5% water, 95% acetonitrile, 0.1% formic acid) as has been described in Weerapana et al. Nat Protoc 2:1414-1425 (2007). Data was collected in data-dependent acquisition mode with dynamic exclusion enabled (20 s, repeat of 2). One full MS (MS1) scan (400-1800 m/z) was followed by 30 MS2 scans (ITMS) of the nth most abundant ions.
(§2) The ratios of heavy/light for each unique peptide (DMSO/compound treated; isoTOP-ABPP ratios, R values) were quantified with in-house CIMAGE software, using default parameters (3 ms s per peak and signal to noise threshold 2.5). Site-specific engagement of electrophilic fragments was assessed by blockade of IA-alkyne probe labeling. […] Ratios for unique peptide entries were calculated for each experiment; overlapping peptides with the same modified cysteine (e.g. different charge states, MudPIT chromatographic steps or tryptic termini) were grouped together and the median ratio was reported as the final ratio (R). The peptide ratios reported by CIMAGE were further filtered to ensure the removal or correction of low quality ratios in each individual dataset. The quality filters applied were the following: removal of half tryptic peptides; for ratios with high standard deviations from the median (90% of the median or above) the lowest ratio was taken instead of the median; removal of peptides with R=20 and only a single ms2 event triggered during the elution of the parent ion; manual annotation of all the peptides with ratios of 20, removing any peptides with low-quality elution profiles that remained after the previous curation steps. Proteome reactivity values for individual fragments were computed as the percentage of the total quantified cysteine-containing peptides with R values≥4 (defined as liganded cysteines) for each replicate experiment and the final proteome reactivity value was calculated as the mean for all replicate experiments for each fragment from both MDA-MB-231 and Ramos cellular proteomes.
(§3) Biological replicates of the same compound and cell-line were averaged if the standard deviation was below 60% of the mean; otherwise the lowest value of the ratio set was taken.

[9] = target: DCUN1D1 C115 (Q96GG9) (Homo sapiens, UniProt Q96GG9); assay: Competitive isoTOP-ABPP, cell lysates; assay type: binding; conditions: 500 μm, in-vitro_ramos_231
Sequence of DCUN1D1 C115 (Q96GG9) (Q96GG9 whole entry): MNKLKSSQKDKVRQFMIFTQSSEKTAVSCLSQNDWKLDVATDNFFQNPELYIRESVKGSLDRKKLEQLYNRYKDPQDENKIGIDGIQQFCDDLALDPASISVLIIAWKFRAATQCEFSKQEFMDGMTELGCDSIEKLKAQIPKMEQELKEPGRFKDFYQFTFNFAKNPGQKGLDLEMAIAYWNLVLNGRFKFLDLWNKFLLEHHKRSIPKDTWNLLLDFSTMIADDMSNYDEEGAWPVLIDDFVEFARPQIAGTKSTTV
Method: as §1, §2, §3

[10] = target: STAT3 C259 (P40763) (Homo sapiens, UniProt P40763); assay: Competitive isoTOP-ABPP, cell lysates; assay type: binding; conditions: 500 μm, in-vitro_ramos_231
Sequence of STAT3 C259 (P40763) (P40763 whole entry): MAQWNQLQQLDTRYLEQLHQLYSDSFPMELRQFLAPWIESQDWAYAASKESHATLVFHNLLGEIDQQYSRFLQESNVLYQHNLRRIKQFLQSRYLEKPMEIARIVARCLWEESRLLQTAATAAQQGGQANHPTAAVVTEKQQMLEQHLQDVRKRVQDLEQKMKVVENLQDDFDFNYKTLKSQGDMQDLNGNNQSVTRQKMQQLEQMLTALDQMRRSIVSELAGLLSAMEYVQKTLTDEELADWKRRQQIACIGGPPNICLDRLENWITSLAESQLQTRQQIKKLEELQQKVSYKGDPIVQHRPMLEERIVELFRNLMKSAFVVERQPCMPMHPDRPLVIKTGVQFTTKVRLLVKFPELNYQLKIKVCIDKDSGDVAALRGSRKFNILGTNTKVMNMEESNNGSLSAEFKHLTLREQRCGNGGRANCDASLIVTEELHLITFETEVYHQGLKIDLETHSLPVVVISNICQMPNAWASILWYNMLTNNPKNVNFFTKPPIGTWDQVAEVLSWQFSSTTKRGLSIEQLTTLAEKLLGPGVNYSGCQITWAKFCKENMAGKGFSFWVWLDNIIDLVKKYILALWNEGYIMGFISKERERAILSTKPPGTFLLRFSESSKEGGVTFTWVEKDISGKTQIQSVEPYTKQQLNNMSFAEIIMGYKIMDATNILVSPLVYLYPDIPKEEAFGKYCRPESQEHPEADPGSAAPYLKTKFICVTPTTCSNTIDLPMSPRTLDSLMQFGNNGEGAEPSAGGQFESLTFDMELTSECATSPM
Method: as §1, §2, §3

[11] = target: CASP8 C360 (Q14790) (Homo sapiens, UniProt Q14790); assay: Competitive isoTOP-ABPP, cell lysates; assay type: binding
Sequence of CASP8 C360 (Q14790) (Q14790 whole entry): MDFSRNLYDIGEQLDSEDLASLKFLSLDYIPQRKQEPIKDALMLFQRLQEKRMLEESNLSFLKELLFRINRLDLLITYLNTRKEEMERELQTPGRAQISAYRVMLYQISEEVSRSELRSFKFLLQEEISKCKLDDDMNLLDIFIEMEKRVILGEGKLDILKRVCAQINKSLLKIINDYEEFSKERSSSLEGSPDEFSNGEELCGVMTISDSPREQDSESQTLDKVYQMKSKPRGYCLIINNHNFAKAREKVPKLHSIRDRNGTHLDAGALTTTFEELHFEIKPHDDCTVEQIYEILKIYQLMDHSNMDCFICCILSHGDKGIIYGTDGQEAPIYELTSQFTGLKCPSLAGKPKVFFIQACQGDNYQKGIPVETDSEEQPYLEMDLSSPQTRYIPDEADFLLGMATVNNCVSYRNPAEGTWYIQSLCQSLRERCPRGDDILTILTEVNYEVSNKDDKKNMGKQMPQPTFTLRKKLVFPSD
Method: as §1, §2, §3

[12] = target: GSTP1 C48 (P09211) (Homo sapiens, UniProt P09211); assay: Competitive isoTOP-ABPP, cell lysates; assay type: binding; conditions: 500 μm, in-vitro_ramos_231;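 note: Heavy/light ratio DMSO over fragment-treated so higher means more cysteine engagement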
Sequence of GSTP1 C48 (P09211) (P09211 whole entry, the tested form may be a part): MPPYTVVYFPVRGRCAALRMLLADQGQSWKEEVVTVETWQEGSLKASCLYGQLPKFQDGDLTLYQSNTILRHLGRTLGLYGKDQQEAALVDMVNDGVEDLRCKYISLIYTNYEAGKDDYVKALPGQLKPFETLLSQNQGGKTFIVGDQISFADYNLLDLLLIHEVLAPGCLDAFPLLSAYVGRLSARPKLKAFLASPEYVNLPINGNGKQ
Method: as §1, §2, §3

[13] = target: T6, PDIA6 C190 (Q15084) (Homo sapiens, UniProt Q15084); assay: Competitive isoTOP-ABPP, cell lysates; assay type: binding; conditions: 500 μm, in-vitro_ramos_231;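 note: Heavy/light ratio DMSO over fragment-treated so higher means more cysteine engagement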
T6 sequence (Q15084 20-440): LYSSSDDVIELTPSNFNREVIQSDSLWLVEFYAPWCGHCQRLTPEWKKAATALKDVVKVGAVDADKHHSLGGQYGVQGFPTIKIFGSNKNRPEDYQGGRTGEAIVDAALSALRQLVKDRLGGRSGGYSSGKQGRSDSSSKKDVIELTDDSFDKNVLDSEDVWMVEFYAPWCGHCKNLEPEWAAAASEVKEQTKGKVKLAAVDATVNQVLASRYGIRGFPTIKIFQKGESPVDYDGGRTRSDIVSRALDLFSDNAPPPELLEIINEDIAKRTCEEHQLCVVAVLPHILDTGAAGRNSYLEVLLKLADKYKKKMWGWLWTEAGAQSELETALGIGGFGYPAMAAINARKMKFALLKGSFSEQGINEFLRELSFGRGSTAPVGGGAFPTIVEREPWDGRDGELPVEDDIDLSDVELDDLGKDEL
Method: as §1, §2, §3

[14] = target: PRMT1 C109 (Q99873) (Homo sapiens, UniProt Q99873); assay: Competitive isoTOP-ABPP, cell lysates; assay type: binding; conditions: 500 μm, in-vitro_ramos_231;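 note: Heavy/light ratio DMSO over fragment-treated so higher means more cysteine engagement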
Sequence of PRMT1 C109 (Q99873) (Q99873 whole entry, the tested form may be a part): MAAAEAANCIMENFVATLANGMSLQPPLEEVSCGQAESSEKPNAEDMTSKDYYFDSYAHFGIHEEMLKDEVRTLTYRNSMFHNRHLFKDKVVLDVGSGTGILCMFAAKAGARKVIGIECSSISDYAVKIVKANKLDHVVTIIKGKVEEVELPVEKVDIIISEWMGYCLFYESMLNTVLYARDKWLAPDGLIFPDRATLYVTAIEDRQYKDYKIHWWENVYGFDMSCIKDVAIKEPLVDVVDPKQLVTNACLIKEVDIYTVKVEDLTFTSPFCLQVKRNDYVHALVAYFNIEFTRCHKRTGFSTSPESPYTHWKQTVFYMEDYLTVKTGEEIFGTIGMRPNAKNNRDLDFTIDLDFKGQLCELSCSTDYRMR
Method: as §1, §2, §3

[15] = target: IDH1 C269 (O75874) (Homo sapiens, UniProt O75874); assay: Competitive isoTOP-ABPP, cell lysates; assay type: binding; conditions: 500 μm, in-vitro_ramos_231
Sequence of IDH1 C269 (O75874) (O75874 whole entry): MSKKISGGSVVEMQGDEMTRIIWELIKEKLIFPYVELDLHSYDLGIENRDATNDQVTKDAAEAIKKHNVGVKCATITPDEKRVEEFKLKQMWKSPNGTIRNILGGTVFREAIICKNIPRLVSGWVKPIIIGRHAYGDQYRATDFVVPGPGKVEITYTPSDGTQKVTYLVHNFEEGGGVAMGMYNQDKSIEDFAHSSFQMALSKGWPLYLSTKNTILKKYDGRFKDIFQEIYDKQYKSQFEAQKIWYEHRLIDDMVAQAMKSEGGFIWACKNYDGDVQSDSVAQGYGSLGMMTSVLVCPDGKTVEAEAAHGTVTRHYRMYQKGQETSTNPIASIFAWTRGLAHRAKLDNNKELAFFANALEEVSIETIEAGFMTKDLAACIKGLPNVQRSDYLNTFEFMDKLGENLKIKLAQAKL
Method: as §1, §2, §3

[16] = target: T7, PDIA6 C55 (Q15084) (Homo sapiens, UniProt Q15084); assay: Competitive isoTOP-ABPP, cell lysates; assay type: binding; conditions: 500 μm, in-vitro_ramos_231
T7 sequence (Q15084 20-440): T6 sequence (Q15084 20-440)
Method: as §1, §2, §3

[17] = target: MLTK C22 (Q9NYL2) (Homo sapiens, UniProt Q9NYL2); assay: Competitive isoTOP-ABPP, cell lysates; assay type: binding; conditions: 500 μm, in-vitro_ramos_231
Sequence of MLTK C22 (Q9NYL2) (Q9NYL2 whole entry): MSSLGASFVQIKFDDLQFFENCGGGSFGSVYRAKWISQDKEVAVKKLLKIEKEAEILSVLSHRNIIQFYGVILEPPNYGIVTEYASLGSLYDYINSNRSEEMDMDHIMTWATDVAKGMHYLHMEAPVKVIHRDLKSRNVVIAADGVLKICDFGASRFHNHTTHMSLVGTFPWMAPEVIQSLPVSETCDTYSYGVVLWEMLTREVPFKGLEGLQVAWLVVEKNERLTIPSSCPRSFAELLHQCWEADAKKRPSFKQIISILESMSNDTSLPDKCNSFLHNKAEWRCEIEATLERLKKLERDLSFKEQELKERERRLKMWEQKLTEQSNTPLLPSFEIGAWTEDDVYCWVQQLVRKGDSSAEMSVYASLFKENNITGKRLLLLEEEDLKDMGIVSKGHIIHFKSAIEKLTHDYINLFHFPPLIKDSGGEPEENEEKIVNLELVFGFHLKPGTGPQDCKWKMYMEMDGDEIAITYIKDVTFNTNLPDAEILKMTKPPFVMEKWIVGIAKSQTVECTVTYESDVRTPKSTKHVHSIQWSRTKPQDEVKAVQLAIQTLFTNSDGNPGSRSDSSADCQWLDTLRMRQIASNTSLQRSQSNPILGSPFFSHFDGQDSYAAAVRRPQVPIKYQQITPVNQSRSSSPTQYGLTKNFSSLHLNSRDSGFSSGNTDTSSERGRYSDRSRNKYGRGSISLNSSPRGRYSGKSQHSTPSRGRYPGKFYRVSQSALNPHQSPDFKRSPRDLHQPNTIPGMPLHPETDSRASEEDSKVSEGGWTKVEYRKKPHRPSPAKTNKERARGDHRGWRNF
Method: as §1, §2, §3

[18] = target: T8, ACAT1 C119 (P24752) (Homo sapiens, UniProt P24752); assay: Competitive isoTOP-ABPP, cell lysates; assay type: binding; conditions: 500 μm, in-vitro_ramos_231
T8 sequence (P24752 34-427): T3 sequence (P24752 34-427)

With `C=CC(=O)Nc1cc(C(F)(F)F)cc(C(F)(F)F)c1` [compound 14] the “proteomic reactivity value (liganded cysteine rate)” value [1] was 3.4% and the “inhibition of 18 labeling of IMPDH2 by fragments” value ([2]; probe 18 25 μM) was “inhibited”.

For `O=C(c1ccc(N2CCOCC2)cc1)N1CCC[C@H](N(C(=O)CCl)c2ccccc2)C1` [63-S], the IC50 ([3]; 300 nM protein in MDA-MB-231 lysate, read-out: apparent IC50 for blockade of 61 labeling of pro-CASP8) was 15 µM and the “activity against CASP10 (in words)” value [4] was “inactive against CASP10”.

`Cc1ncc(CO)c(CNC(=O)CCl)c1O` [compound 54] was tested, and the “isoTOP-ABPP reactivity profile ratio, P24752_C196” value [5] was 1.1, the “isoTOP-ABPP reactivity profile ratio, P24752_C126” value [6] was 1.1 and the “isoTOP-ABPP reactivity profile ratio, P24752_C413” value [7] was 1.1. The “isoTOP-ABPP reactivity profile ratio, O14980_C34” value [8] was 1.1, the “isoTOP-ABPP reactivity profile ratio, Q96GG9_C115” value [9] was 1.1 and the “isoTOP-ABPP reactivity profile ratio, P40763_C259” value [10] was 1.3. The “isoTOP-ABPP reactivity profile ratio, Q14790_C360” value ([11]; 500 μm, in-vitro_ramos_231) was 1.2, the “isoTOP-ABPP reactivity profile ratio, P09211_C48” value [12] was 1.3 and the “isoTOP-ABPP reactivity profile ratio, Q15084_C190” value [13] was 1.2. For the same molecule, the “isoTOP-ABPP reactivity profile ratio, Q99873_C109” value [14] was 1.2, the “isoTOP-ABPP reactivity profile ratio, O75874_C269” value [15] was 1.1 and the “isoTOP-ABPP reactivity profile ratio, Q15084_C55” value [16] was 1.2. The “isoTOP-ABPP reactivity profile ratio, Q9NYL2_C22” value [17] was 1.1 and the “isoTOP-ABPP reactivity profile ratio, P24752_C119” value [18] was 1.0.

With `C#Cc1cccc(C(=O)N2CCC(N(C(=O)CCl)c3ccccc3)CC2)c1` [compound 61] the “direct labeling of pro-CASP8 by click probe” value [3] was “strongly labeled” and the “R value for direct labeling of C360 (10 versus 100 μM probe)” value ([11]; Jurkat cell lysates) was 2.

In the case of `Nc1ncnc2c1ncn2[C@@H]1O[C@H](COP(=O)(O)OP(=O)(O)OP(=O)(O)O)[C@@H](O)[C@H]1O` [ATP], the “inhibition of 18 labeling of IMPDH2 by nucleotides” value ([2]; 500 μM of each nucleotide) is reported as “inhibited” and the IC50 ([2]; probe 18 25 μM, ATP 15 min pre-incubation, read-out: IC50 for blockade of 18 labeling of IMPDH2) is reported as 45 µM.
